# Reference: paper PMC4685510, “A Cell Biologist’s Field Guide to Aurora Kinase Inhibitors” (Frontiers in Oncology, 2015)
# Assays:
# HeLa cells = experiment: Live cell-activated caspase 3/7 assay; type: cell-based, human; conditions: within 24 h of treatment
# Method: HeLa cells (6,000/well) were seeded in 96-well μCLEAR plates (Greiner) in 100 μL DMEM plus serum, and incubated for 16 h at 37°C and 5% CO2. […] After 24 h 2 μM CellEvent Caspase-3/7 Green Reagent (Life Technologies), and NucBlue Live ReadyProbes Reagent (Hoechst 33342; Life Technologies) were added. Cells were imaged after 60 min on a CV7000 spinning disk confocal system (Yokogawa Electric Corporation) with a 20 × 0.75 NA U-PlanApo objective and 2560 × 2160 sCMOS camera with 2 × 2 binning. The imaging chamber was maintained at 37°C and 5% CO2. Six to eight fields/well were imaged, with duplicate wells for each condition. 3 μm × 2 μm z-sections in the blue (40% power, 300 ms, 35% gain) and green (40% power, 300 ms, 35% gain) channels were captured in each field. The apoptotic fraction was calculated by dividing the number of cells fluorescing at 530 nm (corresponding to the cleaved caspase reporter reagent) by the number of nuclei (Hoechst staining). Image analysis was done using the CV7000 image analysis software (Yokogawa Electric Corporation).
# [1] = biological target: T1, full-length human Aurora A (Homo sapiens, UniProt O14965); experiment: Aurora A kinase assay (ADP-Glo, Kemptide substrate)
# T1 sequence (O14965 1-403): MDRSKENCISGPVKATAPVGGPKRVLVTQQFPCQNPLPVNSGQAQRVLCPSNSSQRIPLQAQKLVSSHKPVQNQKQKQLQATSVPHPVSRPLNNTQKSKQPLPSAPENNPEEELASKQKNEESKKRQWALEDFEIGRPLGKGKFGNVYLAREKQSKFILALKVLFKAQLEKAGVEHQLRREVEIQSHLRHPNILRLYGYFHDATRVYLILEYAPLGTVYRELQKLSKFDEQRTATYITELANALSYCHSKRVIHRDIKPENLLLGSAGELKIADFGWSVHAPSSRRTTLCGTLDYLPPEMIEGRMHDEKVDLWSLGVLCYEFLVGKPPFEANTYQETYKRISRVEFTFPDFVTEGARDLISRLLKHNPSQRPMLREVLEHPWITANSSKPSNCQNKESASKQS
# Aurora B/INCENP^783–918 = biological target: T2, Aurora B/INCENP^783–918 (Homo sapiens, UniProt Q96GD4); experiment: Aurora B/INCENP^783–918 kinase assay (ADP-Glo); type: biochemical
# T2 construct: purchased SignalChem
# [2] = tested on: pLATS2(Ser 83) in HeLa cells; experiment: Substrate phosphorylation immunofluorescence assay, pLATS2(Ser 83), HeLa; type: cell-based, human; conditions: Homo sapiens, HeLa, 8 h, read-out: pLATS2 (Ser83) IC50, HeLa; 8 h inhibitor treatment
# Method: We employed the protocol described in Figure 3D to analyze substrate phosphorylation in HeLa cells following treatment with all 10 inhibitors in dose–response. Asynchronous cells were incubated with vehicle (DMSO) or different inhibitor doses for 8 h and then fixed and labeled with a mixture of three antibodies directed against pLATS2(Ser 83), pH3(Ser 28), and MPM2 [which detects mitotic phosphoepitopes; ([86])]. While both the anti-pLATS2(Ser 83) and MPM2 antibodies are mouse monoclonals, they are of different IgG subclasses [IgG2b for anti-pLATS2(Ser 83) and IgG1 for MPM2], and can thus be detected with subclass-specific secondary antibodies (Table S3 in Supplementary Material).
# In control mitotic cells, pLATS2(Ser 83) is concentrated in foci around the spindle poles (Figure 3E; top row – green arrow) and pH3(Ser 28) is on the mitotic chromatin (Figure 3E; top row – red arrow). Selective kinase inhibition should result in loss of one signal but not the other, as illustrated by the example images for specific conditions in Figure 3E (middle and bottom rows). Cells were imaged in 4 channels to visualize pLATS2(Ser 83), pH3(Ser 28), MPM2, and DNA (labeled with Hoechst) and mitotic cells were segmented based on their bright MPM2 labeling (Figure 3E). Intensity and area thresholds were set to select the pLATS2(Ser 83) foci and the pH3(Ser 28)-labeled chromatin in their respective channels in DMSO-treated control cells and the same thresholds were applied for inhibitor-treated cells. The mean fluorescence intensity per pixel was measured to assess the activities of the kinases targeting these two substrate phosphorylation sites.
# Twelve thousand HeLa cells, 10,000 U2OS cells, or 8,000 RPE1 cells were seeded into 96-well glass-bottom Sensoplates (Greiner) 16 h before inhibitor addition. Prior to seeding, the glass-bottom plates were coated with poly-L-lysine (Sigma). […] After 8 h cells were fixed with 4% PFA for 20 min at room temperature. The fixed cells were washed with PBS. For immunostaining, cells were permeabilized and blocked with PBS containing 10% normal donkey serum (Jackson ImmunoResearch) and 0.1% Triton-X100 for 1 h at room temperature. Primary antibodies against phospho-LATS2 (Ser 83), phospho-histone H3(Ser 28), and anti-phospho-MPM2 (see Table S3 in Supplementary Material) were incubated for 1 h at room temperature. […] Cells were then washed twice with PBS containing 0.1% Triton-X100. Image acquisition in four channels was performed using a CV7000 spinning disk confocal system (Yokogawa Electric Corporation) with a 40 × 0.95 NA U-PlanApo objective and 2560 × 2160 pixel sCMOS camera. […] Fifty fields per well were imaged with quadruplicate wells for each condition. Image analysis was done using the CV7000 image analysis software (Yokogawa Electric Corporation). Between 100 and 1,000 mitotic cells per condition were segmented applying object identification parameters to select for bright MPM2 labeling. Using a nuclear identifier protocol, minimum intensity thresholds were set for pLATS2(Ser 83) and the pH3(Ser 28) signals, and the resulting identified objects were eroded, dilated, and filtered for size by user-defined thresholds. For only the MPM2-positive mitotic cells, the mean fluorescence intensity of the identified pLATS2(Ser 83) and pH3(Ser 28) objects was measured, and the average intensity per cell per well was calculated. The same thresholds were applied for all of the inhibitor-treated samples, which were processed, imaged, and analyzed in parallel with control DMSO-treated cells. Data were fit using a four-parameter, variable slope fit in Prism (GraphPad). Primary and secondary antibody dilutions can be found in Table S3 in Supplementary Material.
# Aurora B = conditions: ref 59; read-out: Aurora B IC50 (Published); cited from earlier work
# [3] = tested on: HeLa, RPE1, and U2OS cells; experiment: Cellular proliferation analysis (ATPLite, 24 h)
# Aurora A/TPX2^1–43 = biological target: T3, Aurora A/TPX2^1–43 (Homo sapiens, UniProt O14965); experiment: Aurora A/TPX2^1–43 kinase assay (ADP-Glo)
# T3 sequence (O14965 1-403): T1 sequence (O14965 1-403)
# T3 sequence (Q9ULW0 1-43 partner limits assumed): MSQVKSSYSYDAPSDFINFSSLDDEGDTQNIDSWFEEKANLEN
# [4] = tested on: pH3(Ser 28) in HeLa cells; experiment: Substrate phosphorylation immunofluorescence assay, pH3(Ser 28), HeLa; type: cell-based, human; conditions: 8 h inhibitor treatment
# Method: After 8 h cells were fixed with 4% PFA for 20 min at room temperature. The fixed cells were washed with PBS. For immunostaining, cells were permeabilized and blocked with PBS containing 10% normal donkey serum (Jackson ImmunoResearch) and 0.1% Triton-X100 for 1 h at room temperature. Primary antibodies against phospho-LATS2 (Ser 83), phospho-histone H3(Ser 28), and anti-phospho-MPM2 (see Table S3 in Supplementary Material) were incubated for 1 h at room temperature. […] Cells were then washed twice with PBS containing 0.1% Triton-X100. […] Fifty fields per well were imaged with quadruplicate wells for each condition. Image analysis was done using the CV7000 image analysis software (Yokogawa Electric Corporation). Between 100 and 1,000 mitotic cells per condition were segmented applying object identification parameters to select for bright MPM2 labeling. Using a nuclear identifier protocol, minimum intensity thresholds were set for pLATS2(Ser 83) and the pH3(Ser 28) signals, and the resulting identified objects were eroded, dilated, and filtered for size by user-defined thresholds. […] The same thresholds were applied for all of the inhibitor-treated samples, which were processed, imaged, and analyzed in parallel with control DMSO-treated cells. Data were fit using a four-parameter, variable slope fit in Prism (GraphPad).
# Aurora A = conditions: ref 59; read-out: Aurora A IC50 (Published); cited from earlier work
# [5] = fold difference in potency calculated by dividing Ki values
# T2 sequence (Q96GD4 whole entry): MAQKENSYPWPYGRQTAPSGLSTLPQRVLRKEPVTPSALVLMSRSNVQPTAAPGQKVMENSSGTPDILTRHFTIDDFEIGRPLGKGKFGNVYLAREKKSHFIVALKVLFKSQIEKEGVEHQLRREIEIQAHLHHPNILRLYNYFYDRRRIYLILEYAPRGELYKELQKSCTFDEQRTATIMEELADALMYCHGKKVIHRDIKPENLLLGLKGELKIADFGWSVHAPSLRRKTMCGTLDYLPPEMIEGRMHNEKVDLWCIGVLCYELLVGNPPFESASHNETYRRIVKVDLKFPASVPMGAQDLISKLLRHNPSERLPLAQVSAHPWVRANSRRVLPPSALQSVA
# T2 sequence (Q9NQS7 783-918 partner limits assumed): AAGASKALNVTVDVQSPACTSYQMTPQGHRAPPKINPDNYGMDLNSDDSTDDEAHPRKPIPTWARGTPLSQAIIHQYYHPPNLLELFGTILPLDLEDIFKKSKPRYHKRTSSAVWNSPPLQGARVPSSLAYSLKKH
smiles,measurement,setting,value
CCN1CCN(C(=O)Cc2ccc(Nc3ncc(F)c(Nc4ccc(C(=O)Nc5ccccc5Cl)cc4)n3)cc2)CC1 [Genentech Aurora Inhibitor 1],Apoptosis,HeLa cells,apoptotic cell death
same,Ki,"[1]; Aurora A Ki Mean ± SD, [ATP] = Km(ATP) (35 μM), Ki calculated from IC50 with tight-binding equation",0.57 ± 0.06 nM
same,Selectivity ratio Aur A versus Aur A-TPX2^1–43,[1]; [5],0.4 fold
same,Selectivity ratio Aur A versus Aur B-INCENP^783–918,[1]; [5],274 fold
same,Ki,Aurora B/INCENP^783–918,156 ± 33.7 nM
same,IC50,[2],490 nM
same,IC50,Aurora B,3400 nM
same,Toxicity / cytotoxicity (cellular proliferation),"[3]; HeLa, RPE1, U2OS, 24 h (Figure 4D, Figure S2B)",cytotoxic
same,Effect on proliferation,"[3]; HeLa, within 24 h of treatment",significantly reduced proliferation
same,Toxicity (reduced proliferation),"[3]; U2OS and RPE1 cells, 24 h",toxicity
same,Ki,Aurora A/TPX2^1–43,0.24 ± 0.02 nM
same,Increase of affinity for Aurora A by TPX2^1–43,Aurora A/TPX2^1–43; Aurora A Ki versus Aurora A/TPX2^1–43 Ki,2.5 fold
same,Selectivity ratio Aur A-TPX2^1–43 versus Aur B-INCENP^783–918,Aurora A/TPX2^1–43; [5],654 fold
same,pHistone H3 (Ser28) IC50,[4],NE@9 μM
same,pHistone H3 (Ser28) IC50,[4]; listed as Genentech Aurora Inh 1,NE (9 μM)
same,IC50,Aurora A,3.4 nM
